ChEMBL document CHEMBL3351996, “Carbonic anhydrase inhibitory activity of sulfonamides and carboxylic acids incorporating cyclic imide scaffolds” (Bioorg Med Chem Lett, 2014)

How the values were obtained:
Carbonic anhydrase 1 = Carbonic anhydrase 1 (Homo sapiens, UniProt P00915); assay: Inhibition of human carbonic anhydrase 1 by stopped-flow CO2 hydrase assay
Carbonic anhydrase 2 = Carbonic anhydrase 2 (Homo sapiens, UniProt P00918); assay: Inhibition of human carbonic anhydrase 2 by stopped-flow CO2 hydrase assay
Carbonic anhydrase 9 = Carbonic anhydrase 9 (Homo sapiens, UniProt Q16790)
Description: Inhibition of human carbonic anhydrase 9 by stopped-flow CO2 hydrase assay

Carbonic anhydrase 12 = Carbonic anhydrase 12 (Homo sapiens, UniProt O43570)
Sequence of Carbonic anhydrase 12 (O43570 whole entry): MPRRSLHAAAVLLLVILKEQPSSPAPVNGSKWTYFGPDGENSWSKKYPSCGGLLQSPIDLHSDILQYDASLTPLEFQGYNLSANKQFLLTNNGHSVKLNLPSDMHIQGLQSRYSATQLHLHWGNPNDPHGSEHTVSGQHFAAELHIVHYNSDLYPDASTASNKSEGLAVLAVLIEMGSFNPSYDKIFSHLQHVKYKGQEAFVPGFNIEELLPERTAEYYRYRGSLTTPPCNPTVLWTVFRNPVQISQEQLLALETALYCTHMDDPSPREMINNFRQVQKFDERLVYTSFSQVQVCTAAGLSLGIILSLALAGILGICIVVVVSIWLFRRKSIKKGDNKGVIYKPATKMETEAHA
Description: Inhibition of human carbonic anhydrase 12 by stopped-flow CO2 hydrase assay

Sequence of Carbonic anhydrase 1 (P00915 whole entry): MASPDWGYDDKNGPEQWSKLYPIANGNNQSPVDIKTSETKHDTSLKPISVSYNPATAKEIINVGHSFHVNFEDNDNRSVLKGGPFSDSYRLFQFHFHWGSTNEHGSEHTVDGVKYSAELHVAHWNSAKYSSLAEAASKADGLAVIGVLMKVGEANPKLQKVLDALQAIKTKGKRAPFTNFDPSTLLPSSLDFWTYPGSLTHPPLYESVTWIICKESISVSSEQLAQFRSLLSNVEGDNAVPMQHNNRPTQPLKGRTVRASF

Row | SMILES | Ki (Carbonic anhydrase 1) | Ki (Carbonic anhydrase 2) | Ki (Carbonic anhydrase 9) | Ki (Carbonic anhydrase 12)
1 | Cc1ccc2c(c1)C(=O)N(Cc1ccc(S(N)(=O)=O)cc1)C2=O | 21.8 nM | 26.2 nM | 5.9 nM | 0.85 nM
2 | NS(=O)(=O)c1ccc(N2C(=O)c3cccc4cccc(c34)C2=O)cc1 |  |  | 4.9 nM | 
3 | NS(=O)(=O)c1ccc(CN2C(=O)c3nccnc3C2=O)cc1 |  |  | 5.9 nM | 
4 | NS(=O)(=O)c1ccc(CN2C(=O)CCC2=O)cc1 |  |  | 29.3 nM | 
5 | O=C(O)c1ccc(N2C(=O)c3ccc([N+](=O)[O-])cc3C2=O)cc1 | > 1000 nM | > 1000 nM |  | 
6 | O=C(O)c1ccc(N2C(=O)c3cc(Cl)c(Cl)cc3C2=O)cc1 |  | > 1000 nM | 41.6 nM | 
7 | CC(C)(C)c1ccc2c(c1)C(=O)N(c1ccc(C(=O)O)cc1)C2=O |  | > 1000 nM | 428 nM | 
8 | O=C(O)c1ccc(N2C(=O)c3ccccc3C2=O)cc1 | 30.2 nM | 166 nM | 4.9 nM | 18.7 nM
9 | NS(=O)(=O)c1ccc(CN2C(=O)c3c(Cl)c(Cl)c(Cl)c(Cl)c3C2=O)cc1 |  |  | 3.1 nM | 
10 | O=C(O)c1ccc(N2C(=O)c3nccnc3C2=O)cc1 | > 1000 nM | > 1000 nM | 22.1 nM | 
11 | O=C(O)c1ccc(N2C(=O)CCC2=O)cc1 |  | > 1000 nM | 506 nM | 
12 | NS(=O)(=O)c1ccc(N2C(=O)CCC2=O)cc1 |  |  | 10.8 nM | 
13 | Cc1ccc2c(c1)C(=O)N(c1ccc(C(=O)O)cc1)C2=O |  | > 1000 nM | 350 nM | 
14 | O=C(O)c1ccc(N2C(=O)c3cccc4cccc(c34)C2=O)cc1 | > 1000 nM | > 1000 nM | 5.9 nM | 1.2 nM

Continued by falling Ki (Carbonic anhydrase 9), values first:

Row | Ki (Carbonic anhydrase 1) | Ki (Carbonic anhydrase 2) | Ki (Carbonic anhydrase 9) | Ki (Carbonic anhydrase 12) | SMILES
15 |  |  | 4.6 nM |  | NS(=O)(=O)c1ccc(CN2C(=O)c3cccc4cccc(c34)C2=O)cc1
16 |  | > 1000 nM | 4.4 nM |  | O=C(O)c1ccc(N2C(=O)c3c(Cl)c(Cl)c(Cl)c(Cl)c3C2=O)cc1
17 | 31.2 nM | 4.8 nM | 4.4 nM | 0.57 nM | NS(=O)(=O)c1ccc(N2C(=O)[C@H]3CC=CC[C@H]3C2=O)cc1
18 |  |  | 4.1 nM |  | NS(=O)(=O)c1ccc(CN2C(=O)c3ccccc3C2=O)cc1
19 |  |  | 3.8 nM |  | NS(=O)(=O)c1ccc(N2C(=O)c3ccccc3C2=O)cc1
20 |  |  | 3.3 nM |  | Cc1ccc2c(c1)C(=O)N(c1ccc(S(N)(=O)=O)cc1)C2=O
21 |  |  | 2.9 nM |  | NS(=O)(=O)c1ccc(N2C(=O)c3nccnc3C2=O)cc1
22 |  |  | 2.6 nM |  | NS(=O)(=O)c1ccc(CN2C(=O)[C@H]3CC=CC[C@H]3C2=O)cc1
23 |  |  | 2.4 nM |  | CC(C)(C)c1ccc2c(c1)C(=O)N(c1ccc(S(N)(=O)=O)cc1)C2=O
